Assay results reported in patent US7803407B2 (priority 1997, dated 2010).

How the values were obtained:
Experiment in all cases: Laboratory disinfection efficacy test (suspension, pour plate count)
Format in all cases: cell-based
[1] = system: Salmonella cholerasuis strain ATCC 10708
Description: (§1) The inoculum level for each of the test microorganisms were established in a similar manner. Test strains were grown individually at 35° C. for 24 hr. The cells were harvested by centrifugation at 10,000×g for 10 minutes and washed twice with Butterfield's Phosphate Buffer (BPB of pH 7.2). The cells were resuspended in the Butterfield's Phosphate Buffer to obtain a cell suspension of approximately 1.0×10^8 CFU/mL for each microorganism (target inoculum levels were approx. 10^6 in the final test solution).
(§2) The test microorganisms considered were tested at uniform sampling intervals, The sampling intervals selected were (a) 15 seconds (ethanol trials only), (b) 1 minute, (c) 5 minutes, (d) 10 minutes and (e) 30 minutes.
(§3) Five compounds were tested against the test microorganisms.
(§4) The test microorganisms were tested in accordance with the following test procedures. Duplicate trials were conducted for each test variable. Ninety nine volumes of the test solutions in 250 mL Erlenmeyer flasks were prepared from sterilized deionized water. The solutions were inoculated separately with one mL of 24 hour culture from each of the test strains to yield a flask inoculum level of approximately 1.0×10^6 CFU/mL.
(§5) Solutions were mixed well and kept under constant agitation. Samples of 1.0 mL were removed at the above specified time intervals and placed into 9.0 mL Neutralization Broth media (Difco) to yield an initial dilution of 1:10. All samples were serially diluted in the Butterfield's Phosphate Buffer solution (BPB) and plated onto Tryptic Soy Agar (TSA) in duplicate using the pour plate technique. Percent reductions were calculated for each test solution against each test strain.
(§6) For all tests which utilized either copper or silver ions, concentrated solutions were prepared 24 hours prior to the beginning of the study. Solutions were filtered and determinations for ion content were made. From these stock solutions (copper ion concentration as measured by ICAP and silver ion concentration as measured by Atomic Absorption analysis), final working solutions were made. The target ion concentration for both copper and silver was 5.0 mg/L.

[2] = system: Staphylococcus aureus strain ATCC 6538; conditions: 15 seconds (ethanol trials) or 1 minute to 30 minutes
Description: as §1, §2, §3, §4, §5, §6

[3] = system: pseudomonas aeruginosa strain ATCC 15442; conditions: 15 seconds (ethanol trials) or 1 minute to 30 minutes
Description: as §1, §2, §3, §4, §5, §6

| SMILES | log10 reduction ([1]; 1 minute contact) | disinfection ([1]; after 30 minutes of contact time) | disinfection effectiveness ([1]; all time periods up to 30 minutes) | disinfection effectiveness [2] | disinfection effectiveness [3] | log10 reduction ([1]; 30 minute time period) |
| --- | --- | --- | --- | --- | --- | --- |
| CCO [20% ethanol, ethanol] | ~1.0 log10 | Near complete disinfection | slow, but complete disinfection | No significant reduction | no significant reduction | – |
| O=C(O)CC(O)(CC(=O)O)C(=O)O [citric acid] | – | – | – | Neither citric acid nor copper:citric acid was effective | no significant reduction | 1.0 log10 |
